Measurements as given in patent US20080312164A1 (priority 2006, published 2008).
Like-named read-outs stand apart in the source and are kept apart here. Marks after values point to notes of the source that are not given here.

How the values were obtained:
[1] = system: Du145 cells; assay: Calcein AM cytotoxicity assay, Du145; format: cell-based; conditions: Homo sapiens
Source text: (§1) Five serial 1:2 dilutions were made with anhydrous DMSO at 100× the final concentration used in the assay.

[2] = system: Du145 cells; assay: Cell Titer-Glo cytotoxicity assay, Du145; format: cell-based; conditions: Homo sapiens
Source text: as §1

[3] = system: HCT-116 cells; assay: Calcein AM cytotoxicity assay, HCT-116; format: cell-based; conditions: Homo sapiens
Source text: as §1

[4] = system: HCT-116 cells; assay: Cell Titer-Glo cytotoxicity assay, HCT-116; format: cell-based; conditions: Homo sapiens
Source text: as §1

[5] = system: Hep3B cells; assay: Calcein AM cytotoxicity assay, Hep3B; format: cell-based; conditions: Homo sapiens, 72 h
Source text: as §1

[6] = system: Hep3B cells; assay: Cell Titer-Glo cytotoxicity assay, Hep3B; format: cell-based; conditions: Homo sapiens, 72 h
Source text: as §1

[7] = system: SF-268 cells; assay: Calcein AM cytotoxicity assay, SF-268; format: cell-based; conditions: Homo sapiens
Source text: as §1

[8] = system: SF-268 cells; assay: Cell Titer-Glo cytotoxicity assay, SF-268; format: cell-based; conditions: Homo sapiens
Source text: as §1

[9] = system: SK-OV-3 cells; assay: Calcein AM cytotoxicity assay, SK-OV-3; format: cell-based; conditions: Homo sapiens
Source text: as §1

[10] = system: SK-OV-3 cells; assay: Cell Titer-Glo cytotoxicity assay, SK-OV-3; format: cell-based; conditions: Homo sapiens
Source text: as §1

[11] = system: NCI-H460 cells; assay: Calcein AM cytotoxicity assay, NCI-H460; format: cell-based; conditions: Homo sapiens
Source text: as §1

[12] = system: NCI-H460 cells; assay: Cell Titer-Glo cytotoxicity assay, NCI-H460; format: cell-based, human; conditions: Homo sapiens
Source text: as §1

[13] = system: MCF7 cells; assay: Calcein AM cytotoxicity assay, MCF7; format: cell-based; conditions: Homo sapiens
Source text: as §1

[14] = system: MCF7 cells; assay: Cell Titer-Glo cytotoxicity assay, MCF7; format: cell-based, human; conditions: Homo sapiens
Source text: as §1

[15] = system: NmuMG mouse mammary normal epithelial cells; assay: Calcein AM cytotoxicity assay, NmuMG; format: cell-based; conditions: Epithelial cell, 72 h
Source text: as §1

[16] = system: NmuMG mouse mammary normal epithelial cells; assay: Cell Titer-Glo cytotoxicity assay, NmuMG; format: cell-based; conditions: for IC50: Mus musculus, Epithelial cell, 72 h
Source text: as §1

[17] = system: HT-29 cells; assay: MTT cytotoxicity assay, HT-29; format: cell-based; conditions: Homo sapiens
[18] = system: human cancer cell lines; assay: Cytotoxicity across the panel of human cancer cell lines (average, high-throughput assays); format: cell-based; conditions: for IC50: read-out: Cancerous Average IC50 / Average IC50 in Cancer Cell Lines; for further fold increase in potency from multiple phenyl rings: average IC50 compared with single-ring 23 and 38
Source text: as §1

[19] = system: NCI/ADR RES cells; assay: Calcein AM cytotoxicity assay, NCI/ADR-RES; format: cell-based; conditions: Homo sapiens, 72 h
Source text: as §1

[20] = system: NCI/ADR RES cells; assay: Cell Titer-Glo cytotoxicity assay, NCI/ADR-RES; format: cell-based, human; conditions: for IC50: Homo sapiens, NCI/ADR-RES, 72 h
Source text: as §1

[21] = DU-145, Du145, Calcein AM, 72 h, read-out: IC50
[22] = DU-145, Du145, Cell Titer-Glo, 72 h, read-out: IC50
[23] = HCT-116, Calcein AM, 72 h, read-out: IC50
[24] = HCT-116, Cell Titer-Glo, 72 h, read-out: IC50
[25] = SF-268, Calcein AM, 72 h, read-out: IC50
[26] = SF-268, Cell Titer-Glo, 72 h, read-out: IC50
[27] = SK-OV-3, Calcein AM, 72 h, read-out: IC50
[28] = SK-OV-3, Cell Titer-Glo, 72 h, read-out: IC50
[29] = NCI-H460, Calcein AM, 72 h, read-out: IC50
[30] = NCI-H460, Cell Titer-Glo, 72 h, read-out: IC50
[31] = MCF7, Calcein AM, 72 h, read-out: IC50
[32] = MCF7, Cell Titer-Glo, 72 h, read-out: IC50
[33] = NmuMG, Calcein AM, read-out: IC50
[34] = NmuMG, Cell Titer-Glo, read-out: IC50
[35] = HT-29, MTT, 24 h, read-out: IC50
[36] = average across eight human cancer cell lines, MTT (HT-29) values excluded

## S=C=N[C@@H]1CCCc2ccccc21 [Compound 32, (R)-1-isothiocyanato-1,2,3,4-tetrahydronaphthalene]
[1]; [21]
  IC50: 5.27 µM
[2]; [22]
  IC50: 8.66 µM
[3]; [23]
  IC50: 12.5 µM
[4]; [24]
  IC50: 9.05 µM
[5]; Calcein AM, read-out: IC50
  IC50: < 3.13 µM
[6]; Cell Titer-Glo, read-out: IC50
  IC50: 3.59 ± 0.16 µM
[7]; [25]
  IC50: 5.75 µM
[8]; [26]
  IC50: 7.73 µM
[9]; [27]
  IC50: 5.18 µM
[10]; [28]
  IC50: 7.74 µM
[11]; [29]
  IC50: 18.7 µM
[12]; [30]
  IC50: 13.3 µM
[13]; [31]
  IC50: 3.88 µM
[14]; [32]
  IC50: 7.83 µM
[15]; [33]
  IC50: 17.2 µM
[16]; [34]
  IC50: 17 µM
[17]; [35]
  IC50: 20.4 µM
[18]; [36]
  Cancerous Average IC50 / Average IC50 in Cancer Cell Lines: 8.27^g μM
  IC50: 8.27 µM
[18]; in general, across cell lines
  fold more potent than 23: ~1.2 fold
  fold more potent than the S-enantiomer 31: approximately 2.0 fold

## S=C=NCC(c1ccccc1)c1ccccc1 [Compound 40, 2-isothiocyanato-1,1-diphenylethane]
[1]; [21]
  IC50: 3.51 µM
[2]; [22]
  IC50: 3.65 µM
[3]; [23]
  IC50: 3.26 µM
[4]; [24]
  IC50: 1.22 µM
[5]; Calcein AM, read-out: IC50
  IC50: 3.58 µM
[6]; Cell Titer-Glo, read-out: IC50
  IC50: 4.3 µM
[7]; [25]
  IC50: 3.49 µM
[8]; [26]
  IC50: 3.33 µM
[9]; [27]
  IC50: 5.26 µM
[10]; [28]
  IC50: 4.52 µM
[19]; Calcein AM, read-out: IC50
  IC50: 3.95 µM
[20]; Cell Titer-Glo, read-out: IC50
  IC50: 4.47 µM
[11]; [29]
  IC50: 9.91 µM
[12]; [30]
  IC50: 5.64 µM
[13]; [31]
  IC50: 3.62 µM
[14]; [32]
  IC50: 3.68 µM
[15]; [33]
  IC50: 5.81 µM
[16]; [34]
  IC50: 3.62 µM
[17]; [35]
  IC50: 22.9 µM
[18]
  further fold increase in potency from multiple phenyl rings: ~2 fold
[18]; [36]
  IC50: 4.11 µM

## S=C=NCc1cccc(-c2ccccc2)c1 [Compound 34, 1-(isothiocyanatomethyl)-3-phenylbenzene]
[1]; [21]
  IC50: 7.11 µM
[2]; [22]
  IC50: 3.87 µM
[3]; [23]
  IC50: 2.93 µM
[4]; [24]
  IC50: 3.33 µM
[5]; Calcein AM, read-out: IC50
  IC50: 6.9 µM
[6]; Cell Titer-Glo, read-out: IC50
  IC50: 2.11 µM
[7]; [25]
  IC50: 3.95 µM
[8]; [26]
  IC50: 3.39 µM
[9]; [27]
  IC50: 4.92 µM
[10]; [28]
  IC50: 3.83 µM
[19]; Calcein AM, read-out: IC50
  IC50: 1.47 µM
[20]; Cell Titer-Glo, read-out: IC50
  IC50: 2.23 µM
[11]; [29]
  IC50: 3.53 µM
[12]; [30]
  IC50: 5.29 µM
[13]; [31]
  IC50: 2.52 µM
[14]; [32]
  IC50: 2.13 µM
[15]; [33]
  IC50: 5.95 µM
[16]; [34]
  IC50: 3.06 µM
[17]; [35]
  IC50: 28.8 µM
[18]; IC50 in NmuMG versus average IC50 in cancer cell lines
  selectivity for cancer cells over NmuMG cells: non-selective
[18]
  further fold increase in potency from multiple phenyl rings: ~2 fold
[18]; [36]
  IC50: 3.27 µM

## S=C=NCc1ccc(Oc2ccccc2)cc1 [Compound 36, 1-(isothiocyanatomethyl)-4-phenoxybenzene]
[1]; [21]
  IC50: 12.2 µM
[2]; [22]
  IC50: 8.24 µM
[3]; [23]
  IC50: 4.19 µM
[4]; [24]
  IC50: 3.55 µM
[5]; Calcein AM, read-out: IC50
  IC50: 7.17 µM
[6]; Cell Titer-Glo, read-out: IC50
  IC50: 3.95 µM
[7]; [25]
  IC50: 6.17 µM
[8]; [26]
  IC50: 5.06 µM
[9]; [27]
  IC50: 3.93 µM
[10]; [28]
  IC50: 3.99 µM
[19]; Calcein AM, read-out: IC50
  IC50: 3.93 µM
[20]; Cell Titer-Glo, read-out: IC50
  IC50: 3.3 µM
[11]; [29]
  IC50: 4.47 µM
[12]; [30]
  IC50: 9.12 µM
[13]; [31]
  IC50: 6.34 µM
[14]; [32]
  IC50: 6.16 µM
[15]; [33]
  IC50: < 12.5 µM
[16]; [34]
  IC50: 187 µM
[17]; [35]
  IC50: 37.6 µM
[18]
  further fold increase in potency from multiple phenyl rings: ~2 fold
[18]; [36]
  IC50: 4.84 µM

## S=C=NCc1cccnc1 [Compound 22, 3-(isothiocyanatomethyl)pyridine]
[1]; DU-145, 72 h
  IC50: < 1.88 µM
[2]; DU-145, 72 h
  IC50: 2.91 µM
[3]; HCT-116, 72 h
  IC50: 1.26 µM
[4]; HCT-116, 72 h
  IC50: 2.04 ± 0.21 µM
[5]
  IC50: 3.64 µM
[6]
  IC50: 3 µM
[7]; SF-268, 72 h
  IC50: 2.68 µM
[8]; SF-268, 72 h
  IC50: 2.46 µM
[9]; SK-OV-3, 72 h
  IC50: 2.6 µM
[10]; SK-OV-3, 72 h
  IC50: 2.21 µM
[19]
  IC50: 2.27 µM
[20]
  IC50: 1.18 ± 0.06 µM
[20]; NCI/ADR RES cells
  fold more potent than L-sulforaphane: ~7.5 fold
[20]; NCI/ADR RES cells, phenyl replaced by 3-pyridine
  fold increase in potency versus 23: ≤ 10 fold
[11]; NCI-H460, 72 h
  IC50: 5.18 µM
[12]; NCI-H460, 72 h
  IC50: 4.51 µM
[13]; MCF7, 72 h
  IC50: 2.31 µM
[14]; MCF7, 72 h
  IC50: 2.04 µM
[15]
  IC50: < 12.5 µM
[16]
  IC50: 26 ± 1.15 µM
[16]; NmuMG cells
  fold less potent than L-sulforaphane: ~4 fold
[17]; HT-29, 24 h
  IC50: 21.3 µM
[18]; Homo sapiens
  IC50: 2.54 µM
[18]; potency in NCI/ADR RES and selectivity over NmuMG taken together
  fold increase in effectiveness relative to L-sulforaphane: ~30 fold
